The values below come from a melting point compilation (Tetko et al.; mined from patent text by program, amines drawn as free bases though some values may be those of a salt).

With `N#CCc1ccc(OCc2ccccc2)c(OCc2ccccc2)c1CCc1cccc(OCc2ccccc2)c1`, the melting point – broadly, the temperature, or range, at which the solid turns liquid – is 90 °C.

The compound `CCC(=O)NC1CCC(CNc2nc3c(s2)CCOc2ccccc2-3)CC1` (stereo not given) registered a melting point of 70 to 73 °C. Take `NCCCCCCCCCCN1CCN(CC(=O)N2c3ccccc3C(=O)Nc3cccnc32)CC1`: the melting point fell in the range of 95 to 97 °C. As for `CC(=O)NCC1CNC(=O)O1` (stereo not given), the figure is 138 °C; as for `N=C(Nc1ccc(CNC=Nc2cccs2)cc1)c1cccs1`, 200 to 201 °C; as for `COCc1cc(CCCOc2c(Cl)cc(-c3noc(C)n3)cc2Cl)on1`, 55.5 to 56 °C. In the case of `C[C@@H](NC(=O)c1c(N)cc(Cl)cc1Cl)c1ccccc1`, the melting point fell in the range of 115 to 119 °C. As for `ClCOc1ccc(-c2ccccc2)cc1`, the figure is 67 to 70 °C; as for `COc1ncc(Oc2ccc(Cl)cc2)c2cc(C(N)=O)sc12`, above 250 °C. As for `COc1ccc(-c2cc(=Nc3ccc(OCC4CO4)cc3)n(C)c(=O)n2C)cc1OC` (stereo not given), the figure is 155 to 157 °C. As for `COc1cc(C(=O)c2cccs2)cc([N+](=O)[O-])c1OC`, the figure is 102 to 104 °C; as for `CCOC(=O)Cc1nc(-c2ccc(Cl)cc2)oc1-c1ccco1`, 105 to 106 °C. The compound `O=C(CBr)c1ccc(-c2ccc([N+](=O)[O-])cc2)o1` displayed a melting point of 153 to 162 °C. The value for `O=c1c2cccc3c2n(c(=O)n1CCO)-c1cc(C(F)(F)F)ccc1S3=O` (stereo not given) was 205 to 206 °C; that for `N#Cc1cc2c(cc1C(F)(F)F)[nH]c(=O)c(=O)n2OCc1ccccc1` was 265 °C; that for `COC(=O)c1cn(-c2ccc(OC)c(OC3CC4CCC3C4)c2)c2ccccc12` (stereo not given) was 120 to 122 °C.

Consider `Sc1nc(-c2ccc3c(c2)OCO3)c(-c2ccc3c(c2)OCO3)[nH]1`, for which the melting point lay in the range of 282 to 283 °C. The value for `COc1ccc2c(c1)C(C(=O)O)CC2` (stereo not given) was 101 °C. Take `O=C(NCc1ccc(Cl)cc1)c1cnc2ccc(O)cc2c1O`: the melting point is 319 to 320 °C.

With `CCn1ncnc1COc1nn2c(-c3ccccc3F)nncc2c1C(C)(C)CC`, the melting point was 89 to 92 °C.

For `O=c1[nH]c2ncc(-c3ccc(O)cc3)nc2n1CCC1CCOCC1`, the melting point lay within 276 to 277 °C. In turn, `CCOCc1nc2c(N)nc3cc(OCc4ccccc4)ccc3c2n1CC(C)(C)NC(C)=O` displayed a melting point of 202 to 205 °C. Take `Cc1oc(-c2ccccc2)nc1CCC(=O)c1ccc(CCCC2OC(=O)NC2=O)cc1` (stereo not given): the melting point lay within 184 to 185 °C. As for `CCOC(=O)C1=C2NCCN2C(C)=C(C(C)=O)C1c1cccc([N+](=O)[O-])c1` (stereo not given), the figure is 155 °C; as for `CC(C)(C)OC(=O)C=Cc1cc(Br)cc(Cc2cccnc2)c1`, 97 to 99 °C; as for `Cc1cc(-c2ccccc2C#N)ccc1[N+](=O)[O-]`, 128 to 136 °C. As for `CS(=O)(=O)N[C@@H]1CN2C(=O)N(c3cc(Cl)nc(Cl)c3)C(=O)[C@@]2(Cc2ccc(OC(F)(F)F)cc2)C1`, the figure is 207 °C. `CC(=O)Nc1cccc(/C=C/C(=O)N2CC(CCl)c3ccc([N+](=O)[O-])cc32)c1` (stereo not given) had a melting point of 229 to 230 °C.

`O=C(C#CCO)c1ccc(F)cc1` yielded a melting point of 63 °C. The value for `O=C(NCC1CC1)c1cccnc1Oc1cncc(Cl)c1` was 105 to 107 °C.

With `Cc1cc(NC(=O)CC(C)(C)C)c2c(c1)C(c1ccc(C(C)C)cc1)C(C)(C)O2` (stereo not given), the melting point was in the range of 64 to 68 °C. For the compound `CC1CN(C)c2c3c(nc4cccc(c24)O1)CCCC3` (stereo not given), the melting point lay within 125 to 126 °C.

For `O=C(O)Cc1cccc(CCNC(=O)C2Cc3ccccc3N2S(=O)(=O)c2ccc(-c3ccccc3C(F)(F)F)cc2)c1` (stereo not given), the melting point turned out to be 78 °C. The value for `O=C(O)CN1C(=O)c2ccc(C(=O)O)cc2C1=O` was 262 to 265 °C.

As for `COC(=O)COc1c(C)cc(SCc2ccc(-c3ccc(C(F)(F)F)cn3)cc2)c2c1CCO2`, the melting point is 94 to 95 °C. As for `FC(F)(F)c1cc(Cl)c(-n2cc(C#CBr)c(C(F)(F)F)n2)c(Cl)c1`, the figure is 92 to 94 °C; as for `CCCc1cc(Cl)c2oc(C(=O)O)c(C)c2c1O`, 200 to 203 °C; as for `CNC(=O)C1CN(CC(=O)Nc2c(C)cc(C)cc2C)CCN1CCCC(c1ccc(F)cc1)c1ccc(F)cc1` (stereo not given), 82.3 °C.

In turn, `O=C1OCc2ccc(CO)cc21` displayed a melting point of 107 to 108 °C. As for `O=C(NCc1cccc(OCCOc2nc[nH]n2)c1)c1nc2ccc(F)c(F)c2c(=O)[nH]1`, the figure is 205 to 207 °C; as for `COc1ccc2cc(N(C(C)=O)c3ccc(O)cc3)ccc2c1`, 187 to 188 °C; as for `CCN(CC)C(=O)/C=C/C(C)Sc1nc(N)cc(Cl)n1` (stereo not given), 152 to 153 °C.

In the case of `CN(c1ccc(Cl)cc1)c1ncccc1[N+](=O)[O-]`, the melting point was 107 to 110 °C. Turning to `O=C(NCCCc1c[nH]c(-c2ccc(F)cc2)c1-c1ccncc1)C(F)(F)F`, the melting point is 229 to 230 °C.

In the case of `CN(c1ccc(O)cc1)c1ncnc2cc(Cl)ccc12`, the melting point is 165 °C.

The compound `O=C(O)CCC(=O)c1ccc(-c2ccc(Cl)cc2)cc1` returned a melting point of 184 to 185 °C. As for `O=C1C=C(Br)C(CBr)(NCc2ccccc2)O1` (stereo not given), the figure is 137 to 139 °C; as for `CC(=O)C1=C(O)C(=C(C)Nc2ccccc2Cl)C(=O)OC1=O`, 143 to 145 °C; as for `CC(C)OC(=O)C(C(=O)Nc1ccc(C(F)(F)F)cc1)=C1SCS1`, 151 to 152 °C. The value for `Cc1ccc(OC(=O)c2cc3cc(S(=O)(=O)N(C)C)c(Cl)c(Cl)c3o2)cc1` was 176 to 177 °C; that for `CN1C(=O)SC(=C(CO)c2cccc3ccccc23)C1=O` was 112 to 113 °C. As for `CN1CCC(N2C(=O)CN=C(c3ccccc3Cl)c3cc(Cl)ccc32)CC1`, the figure is 146 to 147 °C; as for `COc1ccccc1C1CCNC(N)=N1` (stereo not given), 189 to 191 °C; as for `COc1ccc2c(Cc3c(Cl)cncc3Cl)nnc(Nc3nccs3)c2c1`, 218 to 220 °C. For `COC(=O)c1cc(O)c(O)c(S(=O)(=O)O)c1`, the melting point was 116 °C.

With `COC(=O)CCCCCCNC(=O)C(COS(C)(=O)=O)NS(=O)(=O)c1ccc(Cl)cc1` (racemic), the melting point lay in the range of 77 to 82 °C. As for `FC(F)(F)c1ccc(Sc2nc(-c3ccccc3)c(-c3ccccc3)[nH]2)cc1`, the figure is 227 to 229 °C; as for `CON=C(C(=O)OC)c1ccccc1/C=C(\Cl)C(=O)O`, 107 to 109 °C; as for `O=C(C1CCCCC1)C1CCN(C(=O)c2cc(O)c(O)c([N+](=O)[O-])c2)CC1`, 155 to 165 °C. In the case of `CC(C)Cn1c(CN2C(=O)c3ccccc3C2=O)c(-c2ccc(Cl)cc2)c2cc(OCc3ccccc3)ccc2c1=O`, the melting point fell in the range of 182 to 183 °C.

Turning to `N#Cc1cccc(C=Nc2ccc(F)cc2)c1`, the melting point is 101 °C. Take `O=C(NCCCCN1CCC(c2ccc3c(c2)OCO3)CC1)c1ccc(NC(=O)c2ccc(Cl)cc2)cc1`: the melting point fell in the range of 238 to 248 °C.

As for `CC1(C)OCC(N(c2nc(Cl)nc(N(C3COC(C)(C)OC3)C3COC(C)(C)OC3)n2)C2COC(C)(C)OC2)CO1`, the melting point is 133 to 135 °C. As for `COc1cccnc1C(=O)NCCNC(=O)OC(C)(C)C`, the figure is 115 °C. Turning to `O=c1[nH][nH]c(=O)n1-c1c(F)cc(Cl)c2c1CCCO2`, the melting point was in the range of 271 to 273 °C. As for `Nc1ncnc2c1ncn2COCCO`, the figure is 200 °C; as for `O=C1NC(=O)C2(CCOC2)N1` (stereo not given), 202 to 204 °C; as for `CCc1cnc2c(NC(=O)c3c(Cl)cccc3Cl)cccc2c1CCO`, 180 to 182 °C. The value for `CC(COc1cccc2ccccc12)Nc1ccc(C(=O)O)cc1` (stereo not given) was 194 to 197 °C. As for `O=C(c1ccc(-c2cnc3c(c2)N(Cc2c(Cl)cccc2Cl)C(=O)CN3)cc1)N1CCC(N2CCCC2)CC1`, the figure is 199 °C; as for `N#CCN1C(=O)N(c2ccc(C#N)c(C(F)(F)F)c2)C(=O)C1(CF)CF`, 125 °C.

`CCCCC=CC(=O)Nc1ccccc1` had a melting point of 50 °C.

`CC=C(C(=O)OC)c1ccccc1CBr` gave a melting point of 64 to 66 °C. The value for `COc1ccc2c(c1)C1(CCCC1)C(O)(CC#N)CC2` (stereo not given) was 126 to 127 °C. As to `COc1cccc(NC(=O)C(C)(C)C)c1C(C)O` (stereo not given), the melting point is 159 °C. Turning to `Cc1nc(N)nc(N)c1CCC(C)c1ccc(Cl)cc1Cl` (stereo not given), the melting point lay within 164 to 168 °C.

`C=Cc1cnc(Nc2ccc(C#N)cc2)nc1Nc1c(C)cc(C)cc1C` showed a melting point of 237 to 242 °C. As for `CNn1c(SC)nnc(C(C)C2CC2)c1=O` (stereo not given), the figure is 66 to 68 °C; as for `CC1=CC(=O)C(C)=C(C)C1=O`, 28 °C; as for `O=S(=O)(Cc1nc2ccc(Cl)cc2[nH]1)c1ccccn1`, 183 to 186 °C. `COc1ccc([C@H]2O[C@](O[Si](C)(C)C)(C(F)(F)F)C(C)(C)N2C(=O)c2ccccc2)cc1` (racemic) showed a melting point of 120 to 123 °C. As for `OC1CSC(Oc2ccc(F)nc2)C(O)C1O` (stereo not given), the figure is 209 to 210 °C. As for `Cc1nn(C(C)(C)C)c(N)c1C(N)=O`, the figure is 195 to 196 °C.

`Cc1nc(-n2ccccc2=O)sc1C(=O)NCc1ccccc1` gave a melting point of 180 to 182 °C. As for `CCCCCOC(=O)c1cc(O)nn1-c1ncccc1Cl`, the figure is 172 to 173 °C; as for `Cc1cccc2c(-c3ccccc3)c([N+](=O)[O-])oc12`, 122 to 127 °C; as for `COC(=O)c1ccc(NN=CC(=O)OCCC#N)cc1S(N)(=O)=O`, 188 to 189 °C.

The compound `COC(=O)c1cc(C(=O)Nc2nccs2)c2cc(Cc3ccc(F)cc3)cnc2c1O` came in with a melting point of 258 to 259 °C.

For the compound `C[C@@H](O)C1(c2onc(-c3ccc(O)cc3)c2-c2ccccc2)CC1`, the melting point came to 213 °C. The value for `Cc1cc(C)c(N2c3ccccc3S(=O)(=O)c3ccccc32)c(C)c1` was 242 to 246 °C.
